Laboratory results reported in PMC7269032, “Chiral 4-O-acylterpineol as transdermal permeation enhancers: insights of the enhancement mechanisms of a transdermal enantioselective delivery system for flurbiprofen” (Drug Delivery, 2020).
In brackets after ≈: the same amount, converted by molar mass. Like-named read-outs stand apart in the source and are kept apart here.

Columns and labels:
[1] = In vitro permeation experiment of FP drug-in-adhesive patches in two-chamber diffusion cells; format: in vitro ADME, rabbit
From the text: Male, Japanese big-eared rabbits weighting 2.5–3.0 kg were purchased from the animal experimental center of North China University of Science and Technology. The experimental process was in accordance with the ‘Ethical Guide for Laboratory Animal Investigation’ and was approved by the Animal Experimental Center Committee of North China University of Science and Technology. All efforts were made to minimize animal suffering and to limit the number of animals used.
The hair of back skin was removed by clipper and electrical shaver carefully when the rabbits were anesthetized with ether. Full thickness of back skin was excised after the rabbit was sacrificed by injecting air into the ear veins, and the subcutaneous fat tissue was carefully removed using the surgical scissor and scalpel. The integrity of the skin was confirmed by microscopic observation method. The treated rabbit skin was cut into a size of 1.5 cm × 1.5 cm and stored at –80 °C until use. Before use, it needed to be immersed in physiological saline for 20 min to thaw.
Drug-in-adhesive patch (drug loading of 5% by adhesive) was prepared by using solvent evaporation method. An appropriate amount of FP was dissolved in a suitable amount of ethyl acetate, which was later added to the adhesive and mixed thoroughly with a mechanical stirrer. The resulting solution was coated onto release liner (Scotch Pak® 9744, 3M, USA) by using lab coating unit (6025, BLD Instruments Co. Ltd., Guangdong, China). The coated laminate was dried at 50 °C for 15 min. After the solvent had been removed, it was covered with backing laminate (Scotch Pak® 9732, 3M).
Modified two-chamber diffusion cells with an effective diffusion area of 0.95 cm^2 were employed in the in vitro permeation experiment. The cells were kept at 32 °C by the circulated water bath and stirred with magnetic bars at 400 rpm. The dermis side of the skin was attached to one-half of the side-by-side diffusion cells, the FP patch was pressed on the skin with the adhesive side facing the SC, and pH 7.4 PBS was used as the receptor medium. At predetermined time points (2, 4, 6, 8, 10, 12 and 24 h), the receptor solution of 2.0 mL was withdrawn and equal volume PBS was added to maintain a constant volume of receptor solution.
The cumulative amount of each drug permeating per unit area (Q) versus time was plotted. Q24h=(3.5Ci+2.0∑i=1n−1Ci−1)/A
Q was the cumulative skin permeation amount. Ci was the concentration in the receiver compartment at time i, A was the effective diffusion area of diffusion.
The steady-state flux (Js, µg/cm^2/h) was calculated from the slope of linear region of the plot. The lag-time was determined by extrapolating the linear portion of the curve to the abscissa. Js=dQr/Adt
Enhancement ratio (ER) was used to evaluate the activity of the enhancers, which is the ratio of Q24h with enhancer to Q24h without enhancer. ER=Q24h(with enhancer)/Q24h(without enhancer)

[2] = Determination of drug solubility; format: physicochemical; conditions: pure water, 25 °C; for solubility: 48 h
Experimental: The excess SR-FP or its single enantiomer (0.01 g) were sealed to 10 mL of pure water at 25 °C in glass vials and waved for 48 h in constant temperature air bath oscillator […]. Finally, the contents were passed through the 0.45 μm microporous membrane and centrifuged at 10,000 rpm for 5 min, then aliquots for the supernatant saturated solution were diluted and analyzed by HPLC. The experiments were performed in triplicate.

[3] = Determination of drug oil-water partition coefficient (log P); format: physicochemical; conditions: n-octanol/water, 25 °C
Experimental: The same volume of water and n-octanol were mixed and shaken for 24 h at 25 °C, then the equal of water saturated n-octanol solution and n-octanol saturated aqueous solution through liquid-separation were obtained. The SR-FP or its single enantiomer (0.001 g) were added in the saturated solution, which were mixed to the ratio of 1:4, then shook for 24–48 h followed by stand for 24 h. (The shakings were in constant temperature air bath oscillator at 25 °C). Afterwards, the HPLC method was utilized to detect the concentration of the substance in the oil phase and the water phase.

[4] = In vivo pharmacokinetic study, intravenous administration; design: species or system rabbit; conditions: rabbits, IV of 4.8 mg/kg SR-FP, enantiomer measured in plasma
Experimental: A certain amount of FP was dissolved in a mixed solution of sterile water and Tween-80 at 2.0 mg/mL. The fresh intravenous solution was prepared just before intravenous administration.
Six male rabbits weighing 2.5 kg were selected for IV. A capacity of 4.8 mg/kg FP (0.2 g FP was dissolved in a mixed solution of pure water and Tween80) was administered to the one ear vein of rabbit, the other ear vein of rabbit was phlebotomized about 0.5 mL at 5, 10, 15, 30 min and 1, 2, 3, 4, 6, 8, 10, 12 h. The blood samples were centrifuged at 4000 rpm for 10 min and kept at –80 °C.
(§1) After being thawed and equilibrated to room temperature, an aliquot (100 μL) of plasma sample was spiked with […] (10 μL) of 40.0 μg/mL and 400 μL methanol. The samples were vortexed for 5 min and followed by centrifugation at 16,000 rpm for 10 min at 25 °C. After centrifugation, the supernatant was transferred to a clean tube and evaporated to dryness at 40 °C under a gentle stream of nitrogen. The dried samples were reconstituted with 100 μL mobile phase, vortexed and centrifuged before analysis.
(§2) Pharmacokinetic parameters were calculated using WinNonlin® software (Pharsight Corporation, San Diego, CA, USA) based on noncompartmental model, including the maximal plasma drug concentration (Cmax), the time to reach Cmax (Tmax) which were obtained from the observed data, the area under the time–concentration curve from time 0 to time t (AUC0–t) of distribution which was calculated using the linear trapezoidal rule, the mean residence time (MRT), the plasma clearance (Cl) and the apparent volume(V). Enhancement factor (Ef) was calculated from the following equation: Ef=AUC0−t(with enhancer)/AUC0−t(without enhancer)
The concentrations of drugs in the receptor medium or rabbit plasma were determined using a validated HPLC method. The HPLC system was equipped with a Shimadzu HPLC apparatus, including an LC-20AT pump, a SIL20A syringe, an SPD-20A detector, and a CTO-20A column oven. The propylparaben was used as an internal standard, and the flow rate of chromatographic analysis was set 1.0 mL/min. For in vitro analysis of SR-FP, thermo (USA) C18 column (150 mm × 4.6 mm, 5 μm particle) maintained at 40 °C was used to elute SR-FP, the mobile phase was used methanol and 1% aqueous glacial acetic acid (60:40, v/v) and the wavelength was set at 247 nm. The HPLC conditions of S-FP and R-FP were as follows: The column was CHIRALPAK®IA (4.6 mm × 250 mml, 5 μm particle diameter) of DAOCEL (Shanghai, China). The mobile phase consisted of acetonitrile and trifluoroacetic acid (0.05%, 50:50, v/v), the wavelength was set at 254 nm. […]

[5] = In vivo pharmacokinetic study, transdermal patch administration; design: species or system rabbit; conditions: rabbits, patch loaded with individual enantiomer, plasma (Figure 2(F))
Experimental: Thirty-six male rabbits weighing 2.5 kg were divided into six groups, and the back skin was intact without erythema. For patch administration studies, patches without or with enhancers (120 mg/kg) were stuck to the shaved area of the rabbits. They were administered as follows: (1) control group: only the SR-FP; (2) enhancer group A: prepared SR-FP patch with 5% d-4-TER; (3) enhancer group B: prepared SR-FP patch with 5% d-4-T-dC18; (4) enhancer group C: prepared SR-FP patch with 5% l-4-T-dC18; (5) enhancer group D: prepared S-FP patch with 5% d-4-T-dC18; (6) enhancer group E: prepared R-FP patch with 5% d-4-T-dC18. In order to prevent the patches fallen off, gauze and medical tape were used to fix the patches. The blood from ear vein of rabbit was collected 0.5 mL at 0.5, 1, 2, 4, 6, 8, 12, 16, 20, 24, 26, 28, 30, 32, 36 and 48 h, and the patch was removed after 24 h, then the residual drug was wiped with physiological saline. The sample was processed by the same method as IV. All animal studies were carried out in accordance with the NIH Guidelines for the Care and Use of Laboratory Animals and were also approved by the Life Science Research Center of North China University of Science and Technology.
as §1, §2
The concentrations of drugs in the receptor medium or rabbit plasma were determined using a validated HPLC method. The HPLC system was equipped with a Shimadzu HPLC apparatus, including an LC-20AT pump, a SIL20A syringe, an SPD-20A detector, and a CTO-20A column oven. The propylparaben was used as an internal standard, and the flow rate of chromatographic analysis was set 1.0 mL/min. For in vitro analysis of SR-FP, thermo (USA) C18 column (150 mm × 4.6 mm, 5 μm particle) maintained at 40 °C was used to elute SR-FP, the mobile phase was used methanol and 1% aqueous glacial acetic acid (60:40, v/v) and the wavelength was set at 247 nm. The HPLC conditions of S-FP and R-FP were as follows: The column was CHIRALPAK®IA (4.6 mm × 250 mml, 5 μm particle diameter) of DAOCEL (Shanghai, China). The mobile phase consisted of acetonitrile and trifluoroacetic acid (0.05%, 50:50, v/v), the wavelength was set at 254 nm. For in vivo analysis of S-FP and R-FP, the mobile phase consisted of acetonitrile and trifluoroacetic acid (0.05%, 35:65, v/v), and other conditions were the same to in vitro analysis.
Absolute bioavailability (F) was calculated by the following equation: F=AUCpatch·Dosei.v./AUCi.v.·Dosepatch

| Tlag of R-FP ([1]; permeant R-FP, patch 5% drug (w/w), enhancer equimolar to 5% 4-TER (control: no enhancer)) [h] | Js of R-FP ([1]; permeant R-FP, patch 5% drug (w/w), enhancer equimolar to 5% 4-TER (control: no enhancer), mean ± SD, n = 4) [μg/cm^2/h] | solubility [2] [µg/mL] | logP [3] | Cl [4] [L/h] | MRT [4] [h] | chiral inversion to the other enantiomer in vivo [5] | Tlag of S-FP ([1]; permeant S-FP, patch 5% drug (w/w), enhancer equimolar to 5% 4-TER (control: no enhancer)) [h] | Js of S-FP ([1]; permeant S-FP, patch 5% drug (w/w), enhancer equimolar to 5% 4-TER (control: no enhancer), mean ± SD, n = 4) [μg/cm^2/h] | cumulative transport of SR-FP at 24 h ([1]; 0% enhancer level (w/w)) [μg/cm^2] | Tlag of SR-FP ([1]; permeant SR-FP, patch 5% drug (w/w), enhancer equimolar to 5% 4-TER (control: no enhancer)) [h] | Js of SR-FP ([1]; permeant SR-FP, patch 5% drug (w/w), enhancer equimolar to 5% 4-TER (control: no enhancer), mean ± SD, n = 4) [μg/cm^2/h] | solubility at 48 h [2] [µg/mL] | logP ([3]; read-out: logP) | SMILES |
| --- | --- | --- | --- | --- | --- | --- | --- | --- | --- | --- | --- | --- | --- | --- |
| 2.43 | 2.43 ± 0.18 | 49.82 ± 1.31 (≈ 204 µM) | 1.83 ± 0.09 | 0.52 ± 0.03 | 1.84 ± 0.15 | S-FP could be detected |  |  |  |  |  |  |  | C[C@@H](C(=O)O)c1ccc(-c2ccccc2)c(F)c1 [R-FP] |
|  |  | 46.39 ± 4.30 (≈ 190 µM) | 1.86 ± 0.05 | 0.30 ± 0.02 | 2.04 ± 0.23 | had not been observed | 3.82 | 2.65 ± 0.29 |  |  |  |  |  | C[C@H](C(=O)O)c1ccc(-c2ccccc2)c(F)c1 [S-FP] |
|  |  |  |  |  |  |  |  |  | 122.93 ± 8.02 | 3.31 | 5.54 ± 0.37 | 89.1 ± 5.48 (≈ 365 µM) | 2.28 ± 0.04 | CC(C(=O)O)c1ccc(-c2ccccc2)c(F)c1 (stereo not shown) [SR-FP, Flurbiprofen] |
